{"source": "patent US7291499B2", "about": "“Transformed cell, method of screening anti-aging agent and anti-aging agent” (priority 2001, dated 2007)", "key": {"[1]": {"test_system": "WI-38 cell with activated Raf kinase region-estrogen receptor fusion gene", "experiment": "Cell growth in tamoxifen-inducible activated Raf cellular senescence system", "type": "cell-based, human", "conditions": "for inhibition of the termination of cell growth induced by the activation of Raf: Raf activated by 10 nM tamoxifen, 25 μM inhibitor added simultaneously", "experimental": "(§1) This is a result of fusing an estrogen receptor gene with a sequence coding for the kinase region of activated Raf gene.\n(§2) (1) In accordance with the aforementioned method, induction of cellular senescence was tested by carrying out gene transfer into the WI-38 cell and thereby constructing a system which can induce cellular senescence by the administration of tamoxifen.\n(§3) The results are shown in FIG. 12, FIG. 13, FIG. 14 and FIG. 15."}, "[2]": {"test_system": "WI-38 cell with activated Raf kinase region-estrogen receptor fusion gene", "experiment": "β-galactosidase positive cells in tamoxifen-inducible activated Raf cellular senescence system", "type": "cell-based, human", "conditions": "for inhibition of the increase of cellular senescence-specific β-galactosidase positive cell induced by the activation of Raf: Raf activated by 10 nM tamoxifen, 25 μM inhibitor added simultaneously", "experimental": "as §1, §2, §3"}, "[3]": {"test_system": "human normal fibroblast WI-38", "experiment": "Cell growth curve (WST-1 relative cell number) of young and senescent WI-38 cells with p38 protein inhibitor", "type": "cell-based", "text": "In the example, effect of a p38 protein inhibitor SB203580 was compared using the same young cell (42 times of division) and senescent cell (61 times of division) of the human normal fibroblast WI-38 used in Reference Example 1. Specifically, the same procedure of the following Example 2 (2) was repeated, except that a young cell (42 times of division) and a senescent cell (61 times of division) of the human normal fibroblast WI-38 cultured in the same manner in Reference Example 1(1) were used instead of the transformed cell.\nIn FIG. 3, the polygonal line a is cell growth curve of the young cell in the presence of SB203580, the polygonal line b is cell growth curve of the young cell in the absence of SB203580, the polygonal line c is cell growth curve of the senescent cell in the presence of SB203580 and the polygonal line d is cell growth curve of the senescent cell in the absence of SB203580. The symbol “+SB” in FIG. 3 means that it was treated with 10 μmol//L of SB203580.\nThe relative number of cells during these 6 days was measured every other day using a commercially available kit [Cell Counting Kit (WST-1 assay), manufactured. by DOJINDO].\nThe WST-1 assay is a method to know indirectly degree of cell growth ability with the use of the calorimetric determination of the activity of dehydration reactions wherein intracellular lactate dehydrogenase and the like are related.\nMeasurement and calculation of the relative cell number were specifically carried out by the following method. That is, 1,000 cells per each well of a 96 well plate were precultured for 24 hours. […] After the reaction, measurement was carried out using a plate reader (measuring wave length=450 nm). These were measured on three samples on each of the measuring days (on the 0th, 2nd, 4th and 6th days) during the growth period, and the average values were used as the data of respective measuring days. The relative number of cells of measured values on respective measuring days was calculated by defining the average of measured values on the 0th day as 1."}, "[4]": {"test_system": "human normal fibroblast WI-38", "experiment": "Ratio of S phase cell by FACS analysis (BrdU labeling) in young and senescent WI-38 cells", "type": "cell-based", "experimental": "Also, the ratio of S phase cells in each treated group was determined by FACS analysis in accordance with the procedure described in the following Example 2(3-a), and the results shown in FIG. 4. The symbol “+” in FIG. 4 means that it was treated with 10 μmol//L of SB203580.\n[…] Next, the cells were fixed with 70% ethanol and treated with 2 mol//L hydrochloric acid for 30 minutes. Subsequently, they were neutralized with 0.1 mol//L sodium borate and then allowed to react with FITC-labeled anti-BrdU antibody (manufactured by BECTON DICKINSON) for 1 hour. After completion of the reaction, the cells were washed with a washing buffer [PBS containing 0.5% Tween 20 and 1% bovine serum albumin (BSA)] and suspended in a PBS solution containing 5 μg/ml ProPidium Iodide (PI). The samples were analyzed by a two dimensional flow cytometry."}, "[5]": {"test_system": "human normal fibroblast WI-38", "experiment": "Cell morphology and cellular senescence-specific β-galactosidase activity in WI-38 cells", "type": "cell-based", "conditions": "senescent cell (61 times of division), SB203580-treated", "experimental": "Specifically, young and senescent cells of the human normal fibroblast WI-38 were respectively washed with PBS and then fixed using 0.5% glutaraldehyde aqueous solution. After the fixation, the cells were soaked in a staining solution [prepared by dissolving 1 mg/ml of X-gal (5-bromo-4-chloro-3-indolyl-[…]), 5 mmol//L potassium ferrocyanide, 5 mmol//L potassium feriocyanide and 1 mmol//L magnesium chloride in phosphate buffered saline (PBS; pH 6.0)] and allowed to react at 37° C. for 5 hours or more.\nIn addition, cell morphology and β-galactosidase activity in each treated group were analyzed in accordance with the procedure described in Reference Example 1(2)."}, "[6]": {"test_system": "MKK6 gene- or MKK6EE gene-introduced human normal fibroblast WI-38", "experiment": "Ratio of β-galactosidase positive cells in MKK6 or MKK6EE gene-introduced transformed cell", "type": "cell-based", "conditions": "10 μmol//L SB203580, culturing period of 6 days", "quoted_text": "Specifically, young and senescent cells of the human normal fibroblast WI-38 were respectively washed with PBS and then fixed using 0.5% glutaraldehyde aqueous solution. After the fixation, the cells were soaked in a staining solution [prepared by dissolving 1 mg/ml of X-gal (5-bromo-4-chloro-3-indolyl-β-galactosidase), 5 mmol//L potassium ferrocyanide, 5 mmol//L potassium feriocyanide and 1 mmol//L magnesium chloride in phosphate buffered saline (PBS; pH 6.0)] and allowed to react at 37° C. for 5 hours or more.\nNext, the procedure described in Reference Example 1 (2) was repeated, except that the two species of the transformed cell of the present invention and one species of a control cell wherein the vector alone was introduced, obtained by repeating the same procedure of Example 2(1), (cells after a culturing period of 6 days in each case; SB203580-untreated cells) and the two species of the transformed cell of the present invention and one species of a control cell wherein the vector alone was introduced, obtained by repeating the same procedure of Example 2(2), (cells after a culturing period of 6 days in each case; SB203580-treated cells) were used. […]"}, "[7]": {"test_system": "MKK6 gene- or MKK6EE gene-introduced human normal fibroblast WI-38", "conditions": "10 μmol//L SB203580 from the 4th day after infection, 6 days culture", "quoted_text": "As the target cell, young cell (42 PD; 5×10^5 cells/10 cm dish) of the human normal fibroblast WI-38 was cultured for 8 hours in the virus supernatant to which polybrene (final concentration=8 μg/ml) had been added. The virus supernatant was once removed, and then fresh virus supernatant [containing polybrene (final concentration=8 μg/ml)] was again added, followed by the culturing for 8 hours. Each of the infection-treated cells was cultured for 3 days in DMEM containing puromycin (2.5 μg/ml).\nOn the 4th day after carrying out the infection, the medium was changed to DMEM containing 2.5% dimethyl sulfoxide (DMSO), followed by the culturing for 6 days. […] The relative number of cells during these 6 days was measured every other day using a commercially available kit [Cell Counting Kit (WST-1 assay), manufactured. by DOJINDO].\nMeasurement and calculation of the relative cell number were specifically carried out by the following method. […] After the reaction, measurement was carried out using a plate reader (measuring wave length=450 nm). These were measured on three samples on each of the measuring days (on the 0th, 2nd, 4th and 6th days) during the growth period, and the average values were used as the data of respective measuring days. The relative number of cells of measured values on respective measuring days was calculated by defining the average of measured values on the 0th day as 1. […]"}, "[8]": {"test_system": "phosphorylation type p38 protein (active type p38 protein)", "experiment": "Western blotting of phosphorylated state of p38 protein", "type": "cell-based, human", "conditions": "young cell (42 PD), 30 μmol//L anisomycin for 30 minutes, positive control, versus untreated young cell", "description": "In this reference example, the phosphorylated state of p38 protein in young and senescent cells of the human normal fibroblast WI-38 was confirmed by a Western blotting respectively using an antibody capable of detecting total p38 protein and another antibody capable of specifically detecting a phosphorylation type p38 protein (namely active type p38 protein) alone.\nSpecifically, young and senescent cells of the human normal fibroblast WI-38 (about 5×10^6 cells) cultured in the same manner as in Reference Example 1(1) were respectively dissolved in 0.1 ml of a buffer solution for dissolution [lysis buffer; 150 mmol//L sodium chloride, 0.5% NP-40, 50 mmol//L Tris-HCl (pH 7.5), 3 mmol//L EDTA, 3 mmol//L EGTA, 3 mmol//L glycerophosphate, […] Na3VO4, 1 μg/ml leupeptin and 1 mmol//L phenylmethanesulfonyl fluoride (PMSF)].\nSubsequently, each extraction sample corresponding to 30 μg as the amount of protein was separated by an SDS polyacrylamide gel electrophoresis in the usual way and then transferred on a membrane (Immobilon-P membrane; manufactured by Millipore). After subjecting the membrane to a blocking treatment using a commercially available blocking agent (Block Ace; manufactured. by Dainippon Pharmaceutical), a primary antibody reaction and a secondary antibody reaction were carried out in order. […]"}, "[9]": {"conditions": "young cell (42 times of division), 10 μmol//L SB203580, same in presence or absence"}, "[10]": {"conditions": "induction of cellular senescence via Raf-estrogen receptor fusion"}}, "data": [{"smiles": "COc1cccc(-c2cc(=O)c3ccccc3o2)c1N", "note": "[PD98059]", "values": [{"measurement": "inhibition of the termination of cell growth induced by the activation of Raf", "setting": "[1]", "result": "partially inhibited"}, {"measurement": "inhibition of the increase of cellular senescence-specific β-galactosidase positive cell induced by the activation of Raf", "setting": "[2]", "result": "partially inhibited"}]}, {"smiles": "C[S+]([O-])c1ccc(-c2nc(-c3ccc(F)cc3)c(-c3ccncc3)[nH]2)cc1", "note": "(stereo not shown) [SB203580, 4-[4-(4-fluorophenyl)-2-[4-(methylsulfinyl)phenyl]-1H-imidazol-5-yl]-pyridine]", "values": [{"measurement": "anti-aging activity upon senescent cell", "setting": "[3]; senescent cell (61 PD) of WI-38, illustrative data not shown", "result": "showed the anti-aging activity"}, {"measurement": "cell growth in comparison with the untreated case", "setting": "[3]; senescent cell (61 times of division), 10 μmol//L SB203580", "result": "accelerated growth"}, {"measurement": "doubling time", "setting": "[3]; [9]", "result": "about 2 days"}, {"measurement": "S phase cell", "setting": "[4]; senescent cell (61 times of division), 10 μmol//L SB203580, 72 hours of BrdU labeling, untreated about 5%", "result": "about 25%"}, {"measurement": "S phase cell", "setting": "[4]; [9]", "result": "about 20%"}, {"measurement": "cellular senescence-specific β-galactosidase-positive degree", "setting": "[5]", "result": "low"}, {"measurement": "morphology of the flat cytoplasm", "setting": "[5]", "result": "became thin"}, {"measurement": "increase of the cellular senescence-specific β-galactosidase positive cells", "setting": "[6]", "result": "inhibited"}, {"measurement": "inhibition of the termination of cell growth induced by the activation of Raf", "setting": "[1]", "result": "more strongly than the PD98059"}, {"measurement": "inhibition of the increase of cellular senescence-specific β-galactosidase positive cell induced by the activation of Raf", "setting": "[2]", "result": "more strongly than the PD98059"}, {"measurement": "growth inhibitory effect by the MKK6 gene or MKK6EE gene", "setting": "[7]", "result": "inhibited"}]}, {"smiles": "COc1ccc(C[C@H]2NC[C@H](O)[C@H]2OC(C)=O)cc1", "note": "[anisomycin]", "values": [{"measurement": "active type p38 protein amount", "setting": "[8]", "result": "increased"}]}, {"smiles": "CC/C(=C(\\c1ccccc1)c1ccc(OCCN(C)C)cc1)c1ccccc1", "note": "[tamoxifen]", "values": [{"measurement": "tamoxifen concentration at which termination of cell growth was observed", "setting": "[1]; [10]", "result": "≥ 1", "unit": "nM"}, {"measurement": "tamoxifen concentration at which increase of cellular senescence-specific β-galactosidase positive cell was observed", "setting": "[2]; [10]", "result": "≥ 1", "unit": "nM"}]}]}
